In ChEMBL document CHEMBL4043137, “Structure-based design, synthesis and in vitro antiproliferative effects studies of novel dual BRD4/HDAC inhibitors” (Bioorg Med Chem Lett, 2017) one finds IC50 and inhibition data, which are given here for 16 molecules.

By IC50 is commonly meant the concentration at which inhibition is half-maximal. The term inhibition denotes the relative decrease from the control value, in per cent. High values mean a response far below the control, low ones a response near the control.

One experiment has as its system OCI-AML-3. In words: cells. The class given is functional, cell-based. Conditions: Homo sapiens, OCI-AML-3, 72 h.
The subject of the next experiment is OCI-AML2. The experiment in a line: cells. The class given is functional, cell-based. To be noted: Homo sapiens, OCI-AML2, 72 h.
Another experiment relates to MV4-11. In words: cells. Format: functional, cell-based. Conditions: Homo sapiens, MV4-11, 72 h.
Experiment [1] has as its target T1, Bromodomain-containing protein 4 (Homo sapiens, UniProt O60885). In words: Inhibition of human BRD4 bromo domain 2 at 5 uM.
In experiment [2] the target is T1, Bromodomain-containing protein 4. The experiment in a line: Inhibition of human BRD4 bromo domain 2 at 0.5 uM.
Experiment [3] has the same target. The experiment in a line: Inhibition of human BRD4 bromo domain 2.
Experiment [4] shares this target. In words: Inhibition of human BRD4 bromo domain 1.
Another experiment concerns the target Histone deacetylase 1 (Homo sapiens, UniProt Q13547). In words: Inhibition of recombinant human HDAC1 after 30 mins by fluorescence assay.
The target of experiment [5] is T1, Bromodomain-containing protein 4. The experiment in a line: Inhibition of BRD4 (unknown origin).

Chain of Histone deacetylase 1 (Q13547 whole entry): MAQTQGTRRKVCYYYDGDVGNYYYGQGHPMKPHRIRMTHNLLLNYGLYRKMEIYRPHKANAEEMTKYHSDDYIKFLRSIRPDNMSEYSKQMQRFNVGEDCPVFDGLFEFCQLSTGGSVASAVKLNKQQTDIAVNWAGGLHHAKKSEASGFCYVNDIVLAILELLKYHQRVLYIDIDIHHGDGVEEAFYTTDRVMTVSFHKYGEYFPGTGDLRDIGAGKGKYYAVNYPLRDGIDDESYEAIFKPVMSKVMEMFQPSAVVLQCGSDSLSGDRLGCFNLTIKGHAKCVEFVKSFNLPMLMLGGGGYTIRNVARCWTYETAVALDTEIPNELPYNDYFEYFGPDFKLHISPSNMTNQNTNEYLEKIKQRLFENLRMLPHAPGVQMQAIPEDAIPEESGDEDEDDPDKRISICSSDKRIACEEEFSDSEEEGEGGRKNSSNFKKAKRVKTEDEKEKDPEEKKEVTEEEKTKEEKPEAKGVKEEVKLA
Description for MV4-11: Antiproliferative activity against human MV4-11 cells after 72 hrs by MTT assay
Description for OCI-AML-3: Antiproliferative activity against human OCI-AML3 cells after 72 hrs by MTT assay
Description for OCI-AML2: Antiproliferative activity against human OCI-AML2 cells after 72 hrs by MTT assay

With `COc1cc(OC)c2c(=O)[nH]c(-c3ccc(OCc4ccc(/C=C/C(=O)NO)cc4)cc3)nc2c1`, the IC50 stood at 1800 nM in the experiment with OCI-AML-3, 1780 nM with OCI-AML2 and 1970 nM in the experiment on MV4-11.
In the case of `COc1cc(OC)c2c(=O)[nH]c(-c3cc(C)c(OCCCCCCCC(=O)NO)c(C)c3)nc2c1`, the figures for the inhibition in experiment [1] and in experiment [2] were 99% and 59%, respectively. The IC50 stood at 1830 nM with OCI-AML-3, 2210 nM in the experiment on OCI-AML2 and 2220 nM with MV4-11.
Consider `COc1cc(OC)c2c(=O)[nH]c(-c3cc(C)c(OCc4ccc(/C=C/C(=O)NO)cc4)c(C)c3)nc2c1`, for which the inhibition in experiment [1] was 83%; in experiment [2], 62%. The IC50 was 430 nM in the experiment with OCI-AML-3; 380 nM in the experiment with OCI-AML2; 560 nM in the experiment with MV4-11; 401 nM in experiment [3]; over 5000 nM in [4]; 204 nM on Histone deacetylase 1.
Consider `COc1cc(OC)c2c(=O)[nH]c(-c3cc(C)c(OCCCCC(=O)NO)c(C)c3)nc2c1`, for which the inhibition in experiment [1] turned out to be 91%; in [2], 73%. Besides, the IC50 in the experiment on OCI-AML-3 is 1090 nM; in the experiment with OCI-AML2, 1520 nM; with MV4-11 it was 1670 nM; in [3], 225 nM; in experiment [4], over 5000 nM; on Histone deacetylase 1, 32 nM.
Turning to `COc1cc(OC)c2c(=O)[nH]c(-c3cc(C)c(OCCO)c(C)c3)nc2c1` [APABETALONE], the half-maximal inhibitory concentration (IC50) in the experiment on OCI-AML-3 came to 7170 nM; with OCI-AML2 it was 8310 nM; in the experiment on MV4-11, 4480 nM.
In the case of `COc1cc(OC)c2c(=O)[nH]c(-c3ccc(OCCCCC(=O)NO)cc3)nc2c1`, the IC50 in the experiment with OCI-AML-3 was 9310 nM; in the experiment with OCI-AML2, 12200 nM; with MV4-11 it was 9880 nM.
With `O=C(CCCCCCC(=O)Nc1ccccc1)NO` [VORINOSTAT], the inhibition stood at 10% in experiment [1] and 2% in experiment [2]. 10 nM corresponded to half-maximal inhibition in [5] (IC50).
`C/C=C1\NC(=O)[C@H]2CSSCC/C=C/[C@H](CC(=O)N[C@H](C(C)C)C(=O)N2)OC(=O)[C@H](C(C)C)NC1=O` [ROMIDEPSIN] showed an IC50 in experiment [5] of 36 nM.
In the case of `COc1cc(OC)c2c(=O)[nH]c(-c3ccc(OCCCCCC(=O)NO)cc3)nc2c1`, the IC50 is 11100 nM in the experiment with OCI-AML-3, 13600 nM in the experiment with OCI-AML2 and 4280 nM in the experiment on MV4-11.
As to `COc1cc(OC)c2c(=O)[nH]c(-c3cc(C)c(Oc4ccc(C(=O)NO)cn4)c(C)c3)nc2c1`, the inhibition in [1] is 93%; in experiment [2], 51%. For the same molecule, the IC50 in the experiment on OCI-AML-3 is 3040 nM; in the experiment with OCI-AML2 it was 6360 nM; with MV4-11, 1390 nM.
On the same counts, the results for `COc1cc(OC)c2c(=O)[nH]c(-c3cc(C)c(OCCCC(=O)NO)c(C)c3)nc2c1` are 90%, 42%, 5530 nM, 4530 nM and 5000 nM.
In the case of `COc1cc(OC)c2c(=O)[nH]c(-c3cc(C)c(O)c(C)c3)nc2c1`, the inhibition is 98% in experiment [1] and 87% in [2].
On to `COc1cc(OC)c2c(=O)[nH]c(-c3cc(C)c(OCCCCCC(=O)NO)c(C)c3)nc2c1`, for which the inhibition came to 97% in [1] and 90% in [2]. The values for the IC50 in the experiment on OCI-AML-3, in the experiment on OCI-AML2 and in the experiment with MV4-11 were 670 nM, 980 nM and 920 nM, respectively.
Take `COc1cc(OC)c2c(=O)[nH]c(-c3cc(C)c(OCCCCCCC(=O)NO)c(C)c3)nc2c1`: the inhibition in [1] came out at 88%; in experiment [2], 29%.
Take `COc1cc(OC)c2c(=O)[nH]c(-c3cc(C)c(OC/C=C/C(=O)NO)c(C)c3)nc2c1`: the inhibition in experiment [1] came out at 93%; in experiment [2], 41%.
As for `Cc1[nH]c2ccccc2c1CCNCc1ccc(/C=C/C(=O)NO)cc1` [PANOBINOSTAT], inhibition in experiment [5] was half-maximal at 5 nM (IC50).
